From ChEMBL document CHEMBL1671776, “Convergent evolution-guided design of antimicrobial peptides derived from influenza A virus hemagglutinin” (J Med Chem, 2011) come the findings set out here.

In data set [1] the test system is Geotrichum candidum. As to the kind of experiment: Antifungal activity against Geotrichum candidum assessed as lethal concentration. The class given is functional.
The subject of data set [2] is Micrococcus luteus. The data set is described as follows: Antimicrobial activity against Micrococcus luteus assessed as lethal concentration. Type of data set: functional.
Data set [3] has as its system Agrobacterium tumefaciens. The data set is described as follows: Antimicrobial activity against Agrobacterium tumefaciens assessed as lethal concentration. The class given is functional.
In data set [4] the test system is Saccharomyces cerevisiae. As to the kind of experiment: Antimicrobial activity against Saccharomyces cerevisiae assessed as lethal concentration. The class given is functional.
In data set [5] the test system is Priestia megaterium. As to the kind of experiment: Antimicrobial activity against Bacillus megaterium assessed as lethal concentration. The class given is functional.
A short description of data set [6]: Cytotoxicity against mouse erythrocyte assessed as hemolysis at 50 uM. The conditions noted are these: erythrocytes, read-out: Activity. The class given is cell-based.
The test system of data set [7] is Pseudomonas aeruginosa. The data set is described as follows: Antimicrobial activity against Pseudomonas aeruginosa assessed as lethal concentration. Type of data set: functional.
Data set [8] relates to Stenotrophomonas. The data set is described as follows: Antimicrobial activity against Stenotrophomonas YC-1 assessed as lethal concentration. Type of data set: functional.
Data set [9] relates to Serratia marcescens. The data set is described as follows: Antimicrobial activity against Serratia marcescens assessed as lethal concentration. Type of data set: functional.
Data set [10] relates to Bacillus sp. The data set is described as follows: Antimicrobial activity against Bacillus sp. DM-1 assessed as lethal concentration. Type of data set: functional.
The subject of data set [11] is Salmonella typhimurium. The data set is described as follows: Antimicrobial activity against Salmonella Typhimurium assessed as lethal concentration. Type of data set: functional, Salmonella enterica subsp. enterica serovar Typhimurium.
The subject of data set [12] is Bacillus sp. As to the kind of experiment: Induction of membrane disruption in Bacillus sp. DM-1 at 10 uM after 30 mins using propidium iodide. The class given is functional, organism-based.
Data set [13] relates to Shewanella oneidensis. The data set is described as follows: Antimicrobial activity against Shewanella oneidensis assessed as lethal concentration. The class given is functional.
Data set [14] has as its system Pseudomonas putida. As to the kind of experiment: Antimicrobial activity against Pseudomonas putida assessed as lethal concentration. The class given is functional.
For data set [15], the system named is Klebsiella sp. As to the kind of experiment: Antimicrobial activity against Klebsiella sp. F51-1-2 assessed as lethal concentration. Type of data set: functional.
Data set [16] relates to Stenotrophomonas. The data set is described as follows: Antimicrobial activity against Stenotrophomonas LZ-1 assessed as lethal concentration. Type of data set: functional.
Where [17] appears, read: Salmonella enterica subsp. enterica serovar Typhimurium.

Active and inactive are the calls of the source. The rule behind the calls is not given here.

Turning to H-IFGAIAGLLKNIF-NH2 [Meucin-13], the Activity in [1] was more than 50 µM; in data set [2], 2.9 µM; in [3], 11.8 µM; in data set [4], 18.3 µM; in data set [5] it was 0.25 µM; in [8], 6.2 µM. The Activity in data set [10] is 2 µM; in data set [11], more than 50 µM; in data set [13] it was 6.2 µM. Also, the hemolysis at 50 µM in data set [6] worked out at 64.7%. The result in data set [7] and in data set [9] was inactive. Moreover, in data set [12], the outcome was Active.
For H-IFGAIAGFIKNIW-OH, the outcome in [14], in data set [1], in [2], in data set [3], in data set [4] and in data set [5] was inactive. Besides, the result in data set [7], in [8], in data set [9], in data set [15], in data set [11] (setting [17]) and in [16] was inactive. In data set [13], the result was inactive. Further, the Activity in data set [10] was 49.93 µM.
As to H-IFGAIAGFIKNIW-NH2, the Activity turned out to be 9.78 µM in data set [14]; 5.36 µM in [1]; 5.95 µM in data set [2]; 20.79 µM in data set [3]; 28.29 µM in data set [4]; 14.1 µM in [5]. Moreover, the Activity is 31.55 µM in [7]; 76.98 µM in data set [8]; 19.25 µM in data set [9]; 2.16 µM in [10]; 23.81 µM in [15]; more than 100 µM in [11]. Also, the Activity is more than 100 µM in data set [16] and 76.98 µM in data set [13]. In addition, the hemolysis at 50 µM in [6] came out at 24.1%.
For the substance H-IFGAIAGFIKNGW-NH2, the outcome in [14], in data set [1], in [3], in data set [5], in data set [7] and in data set [8] was inactive. Besides, the result in [11] (setting [17]), in data set [16] and in data set [13] was inactive. Besides, the Activity in [2] is 14.1 µM; in [4], 83.26 µM; in data set [9], more than 100 µM; in data set [10], 5.36 µM; in [15], more than 100 µM.
Take H-IFGAIAGFIKNGW-OH: the outcome in [14], in [1], in data set [2], in data set [3], in data set [4] and in data set [5] was inactive. Further, the result in [7], in data set [8], in data set [9], in data set [15], in data set [11] (setting [17]) and in data set [16] was inactive. In addition, the outcome in data set [13] was inactive. Also, in data set [10], the Activity is 49.93 µM.
